# Like-named read-outs stand apart in the source and are kept apart here.
# Legend:
# [1] = test system: lactic acid skin irritation; assay: Lactic acid irritation trial, time zero test (anti-irritant applied simultaneously with the irritant); type: in vivo, humans; settings: time zero tests; for inhibition at 250000 µM: Homo sapiens
# From the text: (§1) The following scaled scores were used for sensory assessment: […]
# [2] = test system: lactic acid skin irritation; assay: Lactic acid irritation trial, pretreatment test (anti-irritant applied 15 minutes before the irritant); type: in vivo, humans; settings: for Percent Inhibition (average inhibition of cumulative irritation): cation salt at 250 mM, lactic acid irritant; for inhibit skin irritation: topical solutions in Elizabeth Arden Visible Difference Refining Toner, various amounts of salt
# From the text: as §1
# skin irritation = assay: Human clinical trials of anti-irritant activity against topical skin irritants; type: in vivo, humans; settings: for anti-irritant activity: clinical trials
# Experimental: The objective of the clinical trials was to determine whether and to what extent topical formulations of the calcium cation reduced or prevented skin irritation caused by certain severe skin irritants, including particularly lactic acid and glycolic acid (which are hydroxy acids), capryloyl salicylic acid (a β-hydroxy acid ester) and capsaicin (an isolate from cayenne and paprika known for its skin-irritating properties). The trials were conducted in a double blind, randomized, vehicle-controlled manner. Various formulations of the invention were tested in over 460 people.
# (§2) Tests were conducted in multiple panels of from 7 to 12 subjects each. Subjects were instructed not to wear any makeup or facial lotions to the clinic the day of testing. The subjects were instructed to wash their face with Ivory bar soap in the clinic prior to application of test solutions.
# [3] = test system: lactic acid skin irritation
# Experimental: The majority of the trials were conducted using lactic acid as the skin irritant, and proceeded generally as follows.
# as §2
# Lactic acid skin-irritant compositions were formulated in an appropriate vehicle prior to application to the skin of the subjects.
# Controls were performed by applying corresponding formulation(s) (pretreatment and/or skin-irritant composition) with an equimolar amount of sodium chloride to a contralateral portion of the subject's skin. Typically, the test materials were applied to the face of the subject.
# All test solutions (including controls) were applied in a double blind, randomized fashion using the prepared solutions as previously placed in coded vial designated for use on either the right or left side of the face (or other test area). Solutions were typically applied using a cotton swab (six strokes) or sponge applicator to the face and cheek area extending from the midline of the nose over to the center of the cheek and from the cheek bone down to the jaw line. Application was made first to the right side and then to the left.
# The following scaled scores were used for sensory assessment:
# Symptom scores were cumulated, separately for the cation-treated and control-treated areas, for each individual and also for the panel as a whole.
# [4] = cation salt at 250 mM, lactic acid irritant
# [5] = representative panels, cation concentration 250 mM, vehicle 10% EtOH
# [6] = pretreatment tests, representative panels, cation concentration 250 mM, vehicle VIS DIFFERENCE
Structure (SMILES),"Percent Inhibition (average inhibition of cumulative irritation) [1, 4] [%]","Percent Inhibition [1, 5] [%]",Percent Inhibition (average inhibition of cumulative irritation) ([2]; pretreatment tests) [%],"Percent Inhibition [2, 6] [%]",inhibit skin irritation [2],anti-irritant activity (skin irritation),"inhibition at 250000 µM ([1]; cation salt at 250 mM, lactic acid irritant, read-out: Percent Inhibition (average inhibition of cumulative irritation)) [%]","inhibition at 250000 µM ([1]; representative panels, cation concentration 250 mM, vehicle 10% EtOH, read-out: Percent Inhibition) [%]","inhibition at 250000 µM ([2]; Homo sapiens, pretreatment tests, representative panels, cation concentration 250 mM, vehicle VIS DIFFERENCE, read-out: Percent Inhibition) [%]",Percent Inhibition (cumulative irritation inhibition) ([3]; concentration 31 mM) [%],Percent Inhibition (cumulative irritation inhibition) ([3]; concentration 62 mM) [%],Percent Inhibition (cumulative irritation inhibition) ([3]; concentration 125 mM) [%],Percent Inhibition (cumulative irritation inhibition) ([3]; concentration 250 mM) [%],Percent Inhibition (cumulative irritation inhibition) ([3]; concentration 500 mM) [%],"suppress stinging, burning, tingling, itching and/or erythema (skin irritation; applied topically to the skin, irritants lactic acid, glycolic acid, capryloyl salicylic acid and benzoyl peroxide)"
CC(=O)[O-].CC(=O)[O-].[Ca+2] [Calcium acetate],60,65,40,30,effective to inhibit skin irritation,particularly active as anti-irritants,–,–,–,–,–,–,–,–,–
O=C(O)[C@H](O)[C@@H](O)[C@H](O)[C@H](O)CO [Calcium gluconate],–,–,–,–,–,particularly active as anti-irritants,40,49,40,–,–,–,–,–,–
[Ca+2].[Cl-].[Cl-] [Calcium chloride],65,61,35,35,effective to inhibit skin irritation,particularly active as anti-irritants,–,–,–,–,–,–,–,–,–
O=[N+]([O-])[O-].O=[N+]([O-])[O-].[Ca+2] [Calcium nitrate],90,85,45,44,effective to inhibit skin irritation,particularly active as anti-irritants,–,–,–,26,52,83,82,67,–
[Ca+2] [calcium(II) (Ca^2+)],–,–,–,–,–,significant and reproducible anti-irritant effects,–,–,–,–,–,–,–,–,effective

# Reference: patent publication EP0801570B1, “FORMULATIONS AND METHODS FOR REDUCING SKIN IRRITATION” (COSMEDERM TECHNOLOGIES, priority 1994, dated 1996)
